Measurements as given in ChEMBL document CHEMBL2074328, “Up-regulation of transporters of the MRP family by drugs and toxins” (Toxicol Lett, 2001).

What was measured:
[1] = target: T1, ATP-binding cassette sub-family C member 2 (Rattus norvegicus, UniProt Q63120); assay: TP_TRANSPORTER: Northern blot from primary hepatocytes; type: functional, cell-based, Hepatocyte
[2] = target: T2, Multidrug resistance-associated protein 1 (Homo sapiens, UniProt P33527); assay: TP_TRANSPORTER: Northern blot from MCF-7 cells; type: functional, cell-based; conditions: mcf7
[3] = target: T2, Multidrug resistance-associated protein 1; assay: TP_TRANSPORTER: Western blot, MCF-7 cells; type: functional, cell-based; conditions: mcf7
[4] = target: T1, ATP-binding cassette sub-family C member 2; assay: TP_TRANSPORTER: Western blot, primary hepatocytes; type: functional, cell-based, Hepatocyte
[5] = target: T3, ATP-binding cassette sub-family C member 2 (Homo sapiens, UniProt Q92887); assay: TP_TRANSPORTER: Northern blot from HepG2 cells; type: functional, cell-based
[6] = target: ATP-binding cassette sub-family C member 5 (Homo sapiens, UniProt O15440); assay: (§1) TP_TRANSPORTER: RT-PCR in HepG2 cells; type: functional, cell-based
[7] = target: Multidrug resistance associated protein (Homo sapiens) (UniProt Q96QA9); assay: as §1; type: functional, cell-based
[8] = target: T3, ATP-binding cassette sub-family C member 2; assay: as §1; type: functional, cell-based

Chain of ATP-binding cassette sub-family C member 5 (O15440 whole entry): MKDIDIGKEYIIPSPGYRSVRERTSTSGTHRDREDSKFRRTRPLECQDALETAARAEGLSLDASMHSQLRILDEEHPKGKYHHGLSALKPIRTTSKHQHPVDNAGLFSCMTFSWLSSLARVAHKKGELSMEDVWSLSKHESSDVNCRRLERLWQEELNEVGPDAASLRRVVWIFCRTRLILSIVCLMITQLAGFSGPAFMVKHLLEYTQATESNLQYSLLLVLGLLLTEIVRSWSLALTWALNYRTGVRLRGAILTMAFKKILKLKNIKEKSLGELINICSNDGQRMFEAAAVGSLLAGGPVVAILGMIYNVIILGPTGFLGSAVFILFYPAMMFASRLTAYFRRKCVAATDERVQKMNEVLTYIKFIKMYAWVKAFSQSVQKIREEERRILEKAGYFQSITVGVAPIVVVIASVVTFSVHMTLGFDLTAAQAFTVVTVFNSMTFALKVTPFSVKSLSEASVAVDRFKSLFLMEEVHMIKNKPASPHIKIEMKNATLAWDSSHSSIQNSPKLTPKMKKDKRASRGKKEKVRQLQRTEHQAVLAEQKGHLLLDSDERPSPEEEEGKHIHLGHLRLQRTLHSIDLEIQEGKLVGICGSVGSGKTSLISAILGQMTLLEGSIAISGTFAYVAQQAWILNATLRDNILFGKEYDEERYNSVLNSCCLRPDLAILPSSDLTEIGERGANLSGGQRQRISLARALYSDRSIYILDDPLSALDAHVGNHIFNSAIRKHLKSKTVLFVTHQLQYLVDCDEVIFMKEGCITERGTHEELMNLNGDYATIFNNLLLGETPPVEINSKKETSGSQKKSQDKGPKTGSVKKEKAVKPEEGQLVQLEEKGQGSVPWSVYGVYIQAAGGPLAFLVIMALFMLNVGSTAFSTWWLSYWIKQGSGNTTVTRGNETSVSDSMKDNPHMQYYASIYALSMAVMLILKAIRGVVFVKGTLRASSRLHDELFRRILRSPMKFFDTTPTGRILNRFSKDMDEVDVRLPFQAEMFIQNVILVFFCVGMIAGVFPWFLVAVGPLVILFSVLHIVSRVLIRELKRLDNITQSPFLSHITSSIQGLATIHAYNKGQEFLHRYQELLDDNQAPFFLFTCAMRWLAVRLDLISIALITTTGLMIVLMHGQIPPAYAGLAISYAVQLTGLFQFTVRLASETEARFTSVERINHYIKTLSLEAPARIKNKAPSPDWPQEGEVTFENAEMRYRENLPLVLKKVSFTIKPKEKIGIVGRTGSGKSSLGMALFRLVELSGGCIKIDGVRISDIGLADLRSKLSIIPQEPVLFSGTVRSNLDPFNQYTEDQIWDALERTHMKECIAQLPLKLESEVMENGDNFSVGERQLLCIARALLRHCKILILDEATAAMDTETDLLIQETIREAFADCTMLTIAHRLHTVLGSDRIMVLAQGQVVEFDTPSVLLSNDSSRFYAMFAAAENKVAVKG
T1 sequence (Q63120 whole entry): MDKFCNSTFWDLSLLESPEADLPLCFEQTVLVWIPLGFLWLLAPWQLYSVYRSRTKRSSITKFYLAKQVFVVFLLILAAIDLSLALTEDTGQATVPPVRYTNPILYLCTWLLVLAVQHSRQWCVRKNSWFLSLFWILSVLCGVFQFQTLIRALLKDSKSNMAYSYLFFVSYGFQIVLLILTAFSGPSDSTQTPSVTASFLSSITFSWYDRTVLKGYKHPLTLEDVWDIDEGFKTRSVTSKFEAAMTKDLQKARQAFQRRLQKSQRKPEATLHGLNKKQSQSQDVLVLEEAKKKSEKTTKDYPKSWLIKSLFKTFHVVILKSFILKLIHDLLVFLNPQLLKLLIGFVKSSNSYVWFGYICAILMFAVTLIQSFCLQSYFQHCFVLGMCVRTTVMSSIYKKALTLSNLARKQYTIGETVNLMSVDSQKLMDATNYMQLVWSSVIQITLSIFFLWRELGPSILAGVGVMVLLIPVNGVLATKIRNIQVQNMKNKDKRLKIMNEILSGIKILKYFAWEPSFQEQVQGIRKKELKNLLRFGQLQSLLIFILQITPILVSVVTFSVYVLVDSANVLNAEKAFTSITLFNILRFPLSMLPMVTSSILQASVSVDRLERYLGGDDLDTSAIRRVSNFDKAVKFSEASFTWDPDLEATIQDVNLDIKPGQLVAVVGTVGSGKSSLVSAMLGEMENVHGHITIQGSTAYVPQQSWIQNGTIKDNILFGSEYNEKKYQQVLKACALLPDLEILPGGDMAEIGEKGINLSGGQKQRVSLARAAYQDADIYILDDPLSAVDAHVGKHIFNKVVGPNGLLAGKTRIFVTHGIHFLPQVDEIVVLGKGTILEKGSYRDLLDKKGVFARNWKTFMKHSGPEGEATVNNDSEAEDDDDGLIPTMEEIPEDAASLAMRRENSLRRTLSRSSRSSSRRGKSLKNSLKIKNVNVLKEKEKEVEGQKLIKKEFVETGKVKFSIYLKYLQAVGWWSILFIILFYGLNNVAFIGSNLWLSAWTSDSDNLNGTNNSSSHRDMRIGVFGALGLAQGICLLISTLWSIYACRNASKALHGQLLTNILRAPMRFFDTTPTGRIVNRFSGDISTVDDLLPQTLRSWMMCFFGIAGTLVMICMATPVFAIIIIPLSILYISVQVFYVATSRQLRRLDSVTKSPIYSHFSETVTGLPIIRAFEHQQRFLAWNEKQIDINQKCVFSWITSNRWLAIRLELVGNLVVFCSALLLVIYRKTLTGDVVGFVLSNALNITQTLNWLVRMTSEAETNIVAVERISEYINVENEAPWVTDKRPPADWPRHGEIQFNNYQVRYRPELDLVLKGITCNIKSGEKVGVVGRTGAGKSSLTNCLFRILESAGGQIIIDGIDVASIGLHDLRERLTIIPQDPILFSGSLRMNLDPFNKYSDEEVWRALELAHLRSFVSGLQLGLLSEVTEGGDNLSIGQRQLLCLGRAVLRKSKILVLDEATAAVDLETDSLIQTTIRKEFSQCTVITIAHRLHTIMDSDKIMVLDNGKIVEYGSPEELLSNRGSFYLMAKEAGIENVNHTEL
T3 sequence (Q92887 whole entry): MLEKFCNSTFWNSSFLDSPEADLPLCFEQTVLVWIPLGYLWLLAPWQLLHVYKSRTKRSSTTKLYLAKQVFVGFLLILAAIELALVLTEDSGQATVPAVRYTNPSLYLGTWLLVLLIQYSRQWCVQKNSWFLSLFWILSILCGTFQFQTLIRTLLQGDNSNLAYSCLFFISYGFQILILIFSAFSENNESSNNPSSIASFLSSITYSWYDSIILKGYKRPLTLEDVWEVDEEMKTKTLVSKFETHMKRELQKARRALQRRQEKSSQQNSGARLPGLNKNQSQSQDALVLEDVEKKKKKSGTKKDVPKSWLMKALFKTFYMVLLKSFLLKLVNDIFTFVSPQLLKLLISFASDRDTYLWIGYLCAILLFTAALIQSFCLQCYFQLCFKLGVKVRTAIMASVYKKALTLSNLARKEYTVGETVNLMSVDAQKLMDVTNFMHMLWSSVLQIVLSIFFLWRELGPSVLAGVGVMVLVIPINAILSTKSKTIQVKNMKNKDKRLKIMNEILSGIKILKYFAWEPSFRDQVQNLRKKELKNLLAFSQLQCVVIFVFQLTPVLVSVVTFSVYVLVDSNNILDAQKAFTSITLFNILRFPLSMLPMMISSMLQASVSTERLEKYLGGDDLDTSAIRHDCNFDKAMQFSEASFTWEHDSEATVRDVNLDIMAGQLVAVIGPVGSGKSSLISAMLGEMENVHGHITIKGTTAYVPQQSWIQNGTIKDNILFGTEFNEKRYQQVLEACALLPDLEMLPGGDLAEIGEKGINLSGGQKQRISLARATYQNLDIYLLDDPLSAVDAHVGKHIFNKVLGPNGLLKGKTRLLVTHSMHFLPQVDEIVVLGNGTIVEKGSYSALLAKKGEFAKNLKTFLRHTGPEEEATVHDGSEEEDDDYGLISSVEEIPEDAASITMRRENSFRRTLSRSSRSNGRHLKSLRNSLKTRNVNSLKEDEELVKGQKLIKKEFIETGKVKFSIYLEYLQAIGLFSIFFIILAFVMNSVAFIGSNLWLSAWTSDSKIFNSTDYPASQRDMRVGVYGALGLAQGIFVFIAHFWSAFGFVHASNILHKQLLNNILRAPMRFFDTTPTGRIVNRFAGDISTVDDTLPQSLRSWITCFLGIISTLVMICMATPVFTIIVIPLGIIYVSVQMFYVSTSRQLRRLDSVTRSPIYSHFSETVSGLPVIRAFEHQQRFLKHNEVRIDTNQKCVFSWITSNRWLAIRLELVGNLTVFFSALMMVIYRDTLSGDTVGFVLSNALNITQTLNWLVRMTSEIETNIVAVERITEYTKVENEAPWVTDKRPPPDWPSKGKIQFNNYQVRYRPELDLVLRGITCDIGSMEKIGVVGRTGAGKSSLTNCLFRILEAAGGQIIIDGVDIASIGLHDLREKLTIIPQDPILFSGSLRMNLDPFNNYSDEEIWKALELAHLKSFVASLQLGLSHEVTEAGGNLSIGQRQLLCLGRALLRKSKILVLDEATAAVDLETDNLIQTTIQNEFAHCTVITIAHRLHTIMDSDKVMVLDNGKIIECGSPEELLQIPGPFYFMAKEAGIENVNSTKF

Compound | Activity [1] | Activity [4] | Activity [6] | also measured
CC[C@]1(O)C[C@@H]2CN(CCc3c([nH]c4ccccc34)[C@@](C(=O)OC)(c3cc4c(cc3OC)N(C)[C@H]3[C@@](O)(C(=O)OC)[C@H](OC(C)=O)[C@]5(CC)C=CCN6CC[C@]43[C@@H]65)C2)C1 [VINBLASTINE] | inducer [+] | inducer [+] |  | Activity [2]: inducer [+]; Activity [3]: inducer [+]
CCC1(c2ccccc2)C(=O)NC(=O)NC1=O [PHENOBARBITAL] |  |  |  | Activity [5]: inducer [+]
CO[C@H]1/C=C/O[C@@]2(C)Oc3c(C)c(O)c4c(O)c(c(/C=N/N5CCN(C)CC5)c(O)c4c3C2=O)NC(=O)/C(C)=C\C=C\[C@H](C)[C@H](O)[C@@H](C)[C@@H](O)[C@@H](C)[C@H](OC(C)=O)[C@@H]1C [RIFAMPIN] |  |  | inducer [+] | 
CC(C)(C)c1cc(O)ccc1O [E319] |  |  |  | Activity [2]: inducer [+]; Activity [3]: inducer [+]
CISPLATIN [listing 1 of 2 here] |  |  |  | Activity [7]: inducer [+]
CC(=O)Nc1ccc2c(c1)Cc1ccccc1-2 [2-ACETYLAMINOFLUORENE] | inducer [+] | inducer [+] | inducer [+] | Activity [5]: inducer [+]; Activity [7]: inducer [+]
CISPLATIN [listing 2 of 2 here] | inducer [+] | inducer [+] | inducer [+] | Activity [8]: inducer [+]
C[C@@H]1C[C@H]2[C@@H]3CCC4=CC(=O)C=C[C@]4(C)[C@@]3(F)[C@@H](O)C[C@]2(C)[C@@]1(O)C(=O)CO [DEXAMETHASONE] | inducer [+] | inducer [+] |  | 
